Key:
Assay in all cases: relative viability (nuclei count vs DMSO), 5 days (fraction); higher = more cells survive
Quizartinib + Vorinostat = compound: CC(C)(C)c1cc(NC(=O)Nc2ccc(-c3cn4c(n3)sc3cc(OCCN5CCOCC5)ccc34)cc2)no1 [Quizartinib] + O=C(CCCCCCC(=O)Nc1ccccc1)NO [Vorinostat] (partner 1 µM)
Summary of the method: (§1)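 Medians of duplicate plates are given as relative viability. That measure is the nuclei count in treated wells divided by the count in vehicle wells. Counts were taken on 4× images of lung cancer cell lines in 1536-well plates, 5 days after pin-tool dosing the day after seeding with one drug alone or a fixed anchor-drug dose plus five library-drug doses (not always all listed) in √10 steps.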

YM155 + Luminespib = compound: COCC[n+]1c2c(n(Cc3cnccn3)c1C)C(=O)c1ccccc1C2=O [YM155] + CCNC(=O)c1noc(-c2cc(C(C)C)c(O)cc2O)c1-c1ccc(CN2CCOCC2)cc1 [Luminespib] (partner 0.01 µM)
Summary of the method: as §1

YM155 + Tozasertib = compound: COCC[n+]1c2c(n(Cc3cnccn3)c1C)C(=O)c1ccccc1C2=O [YM155] + Cc1cc(Nc2cc(N3CCN(C)CC3)nc(Sc3ccc(NC(=O)C4CC4)cc3)n2)n[nH]1 [Tozasertib] (partner 0.1 µM)
Summary of the method: as §1

YM155 + Olaparib = compound: COCC[n+]1c2c(n(Cc3cnccn3)c1C)C(=O)c1ccccc1C2=O [YM155] + O=C(c1cc(Cc2n[nH]c(=O)c3ccccc23)ccc1F)N1CCN(C(=O)C2CC2)CC1 [Olaparib] (partner 8 µM)
Summary of the method: as §1

Cell Line	relative viability (Quizartinib + Vorinostat; first compound 0.001 µM)	relative viability (Quizartinib + Vorinostat; first compound 0.003162 µM)	relative viability (Quizartinib + Vorinostat; first compound 0.01 µM)	relative viability (Quizartinib + Vorinostat; first compound 0.03162 µM)	relative viability (Quizartinib + Vorinostat; first compound 0.1 µM)	relative viability (YM155 + Luminespib; first compound 0.002 µM)	relative viability (YM155 + Luminespib; first compound 0.006325 µM)	relative viability (YM155 + Luminespib; first compound 0.02 µM)	relative viability (YM155 + Luminespib; first compound 0.06325 µM)	relative viability (YM155 + Tozasertib; first compound 0.002 µM)	relative viability (YM155 + Tozasertib; first compound 0.006325 µM)	relative viability (YM155 + Tozasertib; first compound 0.02 µM)	relative viability (YM155 + Tozasertib; first compound 0.06325 µM)	relative viability (YM155 + Olaparib; first compound 0.002 µM)	relative viability (YM155 + Olaparib; first compound 0.006325 µM)	relative viability (YM155 + Olaparib; first compound 0.02 µM)	relative viability (YM155 + Olaparib; first compound 0.06325 µM)
NCI-H1666	1.06	0.974	1.16	0.893	1.07	1.01	1.07	1.02	0.852	0.629	0.646	0.686	0.664	0.754	0.741	0.769	0.679
EMC-BAC-2	0.433	0.486	0.288		0.544	1.19	1.11	1.12	0.982	0.265	0.256	0.273	0.275	0.444	0.44	0.392	0.301
NCI-H460		0.734	0.687		0.566	0.0266	0.0307	0.035	0.0204	0.604	0.468	0.535	0.413	0.411	0.444	0.417	0.384
NCI-H2405	0.943	0.967	0.763	0.902	1.17	0.65	0.778	0.639	0.393	0.678	0.704	0.637	0.513	0.753	0.771	0.637	0.397
SK-LU-1	0.766	0.716	0.896	0.835	0.892	0.183	0.185	0.21	0.223	0.293	0.357	0.418	0.341	0.422	0.442	0.516	0.327
NCI-H1395	0.685	1.09	0.695	0.623	0.858	0.934	0.81	0.798	0.971	0.788	0.779	0.814	0.777	0.489	0.457	0.46	0.456
NCI-H727	1.16	1.13	1.18	1.27	1.42	0.588	0.336	0.307	0.665	0.38	0.721	0.615	0.7	0.775	0.722	0.66	0.729
NCI-H1975	0.669	0.695	0.745	0.705	0.721	0.283	0.253	0.209	0.156	0.715	0.704	0.859	0.163	0.717	0.756	0.767	0.189
BEN	0.533	0.532	0.565	0.56	0.602	0.33	0.728	0.617	0.417	0.565	0.518	0.587	0.581	0.994	1.06	1.11	1.08
NCI-H2228	0.51	0.565	0.844	0.535	0.629	0.16	0.148	0.104	0.144	0.265	0.26	0.213	0.316	0.67	0.597	0.809	0.581
NCI-H2023	0.61	0.493	0.762		0.772	0.771	0.678	0.682	0.349	0.416	0.433	0.314	0.0926	0.558	0.468	0.379	0.325
NCI-H1793	0.642	0.888	0.762	0.809	0.881	0.234	0.24	0.333	0.189	0.385	0.38	0.369	0.32	0.847	0.824	0.91	0.575
NCI-H1993	0.68	0.76	0.939	0.726	0.725	0.722	0.695	0.444	0.529	0.582	0.646	0.498	0.452	0.765	1.01	0.79	0.465
PC-3 [JPC-3]	0.758	0.889	0.55	0.596	0.912	0.654	0.732	0.673	0.653	0.879	0.984	0.869	0.941	1.12	1.19	1.1	0.796
NCI-H650	0.464	0.445	0.416	0.456	0.54	0.768	0.803	0.75	0.89	0.742	0.686	0.764	0.646	0.429	0.345	0.409	0.377
NCI-H596	0.565	0.775	0.61	0.686	0.6	1.06	1.02	0.924	1.27	0.847	0.811	0.953	1.03	0.719	0.669	0.697	0.622
NCI-H2170	0.745	0.803	0.808	0.89	0.867	0.525	0.751	0.647	0.596	0.831	0.792	0.784	0.722	0.605	0.583	0.668	0.62
NCI-H2087	0.751	0.705	0.676	0.384	0.73	0.194	0.17	0.148	0.149	0.253	0.23	0.253	0.219	0.547	0.589	0.586	0.49
COR-L 105	0.266	0.793	0.871		0.881	0.813	0.641	0.57	0.529	0.345	0.352	0.316	0.327	0.584	0.715	0.72	0.538
NCI-H2126	0.621	0.789	0.711	0.816	0.841	0.804	0.969	0.94	0.927	0.807	0.88	0.948	0.934	0.884	0.921	0.935	0.946
NCI-H322M	0.867	0.842	0.836	0.878	0.903	0.814	0.949	0.944	0.759	0.461	0.496	0.504	0.46	0.719	0.815	0.706	0.734
NCI-H2009	0.673	0.697	0.652	0.696	0.761	1.08	0.986	1.04	0.476	0.739	0.791	0.776	0.458	0.66	0.673	0.582	0.337
UMC-11	0.376	0.333	0.336	0.338	0.358	0.932	1.08	1	1.11	0.209	0.199	0.213	0.212	0.389	0.374	0.595	0.386
EPLC-272H	0.427	0.337	0.484	0.58	0.692	0.378	0.327	0.186	0.24	0.349	0.198	0.449	0.223	0.825	0.891	0.722	0.811

— the supplement of paper PMC10307832
